Results reported in PubChem BioAssay AID493147 (Broad Institute, 2011).
“And” between values parts separate entries of the source, which are not always exact repeats. Equal values may be shown once. Results filed as inconclusive are left out. The source made the active and inactive calls. How the calls were made is not given here.

What was measured:
PubChem AID 493147 = conditions: NIH-3T3 viability with fluconazole, Alamar Blue, 48 h
[1] = system: NIH-3T3 viability with fluconazole, Alamar Blue, 48 h; assay: PubChem AID 493147

Row | SMILES | activity change, negative = toxicity (PubChem AID 493147; at 26 µM (top of the series)) | also measured
1 | CCCCC(=O)N1CCN(c2ccccn2)CC1 | 5.32% (inactive) | 
2 | COC(=O)Cn1nc(-c2ccc(Cl)cc2)c2ccccc21 | -6.09% (inactive) | 
3 | O=c1c2[nH]c3ccccc3c2nc2n1CCS2 | -31.6% (inactive) | 
4 | CNC(=O)Cn1nc(-c2ccccc2)c2ccccc21 | 2.83% (inactive) | 
5 | COC(=O)C(C)(C)n1nc(-c2ccccc2)c2ccccc21 | -1.11% (inactive) | 
6 | O=C(Cn1c2ccc(F)cc2c2nc3n(c(=O)c21)CCS3)N1CCCCCC1 | 21.2% (inactive) | 
7 | COC(=O)Cn1nc(-c2ccccc2OC)c2ccccc21 |  | AC50 [1]: 1040 nM
8 | O=C(Cn1c2ccccc2c2nc3n(c(=O)c21)CCS3)N1CCOCC1 | -8.2% (inactive) | 
9 | COc1ccc(C(=O)N2CCN(c3ccccn3)CC2)cc1 |  | AC50 [1]: 461 nM
10 | COC(=O)Cn1nc(-c2ccccc2)c2ccc(C)cc21 | 16.9% (inactive) | 
11 | N#Cc1cccc(N2CCN(C(=O)c3ccc(Cl)cc3)CC2)n1 | -27.5% (inactive) | 
12 | N#Cc1ccc(C(=O)N2CCN(c3ccccn3)CC2)cc1 | 15.4% (inactive) | 
13 | O=C(c1ccc(Cl)cc1)N1CCN(c2ccc(C(F)(F)F)cn2)CC1 | 0.409% (inactive) | 
14 | COC(=O)Cn1nc(C)c2ccccc21 | -17.5% (inactive) | 
15 | COC(=O)Cn1nc(-c2ccccc2C)c2ccccc21 | 24.8% (inactive) | 
16 | Cc1ccnc(N2CCN(C(=O)c3ccc(Cl)cc3)CC2)c1 | -20% (inactive) | 
17 | CC(C)OC(=O)Cn1nc(-c2ccccc2)c2ccccc21 | 11.4% (inactive) | 
18 | O=C(Cn1c2ccccc2c2nc3n(c(=O)c21)CCS3)NCCc1ccc(Cl)cc1 | -12% (inactive) | 
19 | O=C(O)c1nn(Cc2ccc(Cl)cc2)c2ccccc12 | -35.3% (inactive) | 
20 | CC(C)C(=O)N1CCN(c2ccccn2)CC1 | 10% (inactive) | 
21 | COC(=O)Cn1nc(-c2ccc(C(F)(F)F)cc2)c2ccccc21 |  | AC50 [1]: < 100 nM
22 | O=C(c1ccc(F)cc1)N1CCN(c2ccccn2)CC1 | -8.14% (inactive) | 
23 | COC(=O)Cn1nc(I)c2ccccc21 |  | AC50 [1]: 528 nM
24 | COC(=O)Cn1nc(-c2ccc(F)cc2)c2ccccc21 | -40.8% (inactive) | 

Row | SMILES | activity change, negative = toxicity (PubChem AID 493147; at 26 µM (top of the series)) | also measured
25 | COC(=O)Cn1nc(-c2ccccc2)c2cc(OC)ccc21 | -0.175% (inactive) | 
26 | COC(=O)Cn1nc(-c2ccccc2)c2ccc(OC)cc21 |  | AC50 [1]: < 100 nM
27 | COC(=O)Cn1c(-c2ccccc2)nc2ccccc21 | 10.3% (inactive) | 
28 | O=C1OCCC1n1nc(-c2ccccc2)c2ccccc21 (configuration not stated) | 4.08% (inactive) | 
29 | COC(=O)[C@@H](C)n1nc(-c2ccccc2)c2ccccc21 (racemic) | -17.9% (inactive) | 
30 | O=c1c2[nH]c3ccc(F)cc3c2nc2n1CCS2 | 9.27% (inactive) | 
31 | COC(=O)Cn1nc(-c2ccccc2)c2cc(C)ccc21 | 3.35% (inactive) | 
32 | O=C(c1ccccc1Cl)N1CCN(c2ccccn2)CC1 | -3.33% (inactive) | 
33 | O=C(Cn1nc(-c2ccccc2)c2ccccc21)Oc1ccccc1 | 26.7% (inactive) | 
34 | O=C(c1ccc(Cl)cc1)N1CCN(c2cccc(C(F)(F)F)n2)CC1 |  | AC50 [1]: 17600 nM
35 | COc1ccc2c(c1)c1nc3n(c(=O)c1n2CC(=O)N1CCC(Cc2ccccc2)CC1)CCS3 | 8.36% (inactive) | 
36 | COC(=O)Cn1nc(-c2cccc(F)c2)c2ccccc21 |  | AC50 [1]: 12800 nM
37 | N#Cc1ccc(N2CCN(C(=O)c3ccc(Cl)cc3)CC2)nc1 | -32.5% (inactive) | 
38 | COC(=O)Cn1c2ccccc2c2nc3n(c(=O)c21)CCS3 |  | AC50 [1]: 2660 nM
39 | COC(=O)Cn1nc(-c2cccc(OC)c2)c2ccccc21 | -29.2% (inactive) | 
40 | O=C(O)Cn1nc(-c2ccccc2)c2ccccc21 | -23% (inactive) | 
41 | O=C(c1ccc(Cl)cc1)N1CCN(c2ncccc2C(F)(F)F)CC1 | -31.9% (inactive) | 
42 | O=C(Cn1nc(C(=O)N2CCCCC2)c2ccccc21)N1CCOCC1 | -3.68% (inactive) | 
43 | COC(=O)Cn1nc(-c2ccccc2)c2cc(Cl)ccc21 | -3.67% (inactive) | 
44 | COCCn1nc(-c2ccccc2)c2ccccc21 | -7.82% (inactive) | 
45 | O=C(Cn1c2ccccc2c2nc3n(c(=O)c21)CCS3)N1CCCCC1 | -8.42% (inactive) | 
46 | COc1cccnc1N1CCN(C(=O)c2ccc(Cl)cc2)CC1 |  | AC50 [1]: 124 nM
47 | Cc1ccc(N2CCN(C(=O)c3ccc(Cl)cc3)CC2)nc1 |  | AC50 [1]: > 26000 nM (inactive)
48 | CC(C)(C)OC(=O)Cn1nc(-c2ccccc2)c2ccccc21 | 20.8% (inactive) | 

Row | SMILES | activity change, negative = toxicity (PubChem AID 493147; at 26 µM (top of the series)) | also measured
49 | O=C(Cn1nc(-c2ccccc2)c2ccccc21)NCc1ccc(Cl)cc1 |  | AC50 [1]: 25900 nM
50 | COC(=O)Cn1nc(-c2ccccc2)c2ccc(C(F)(F)F)cc21 | -18.2% (inactive) and -8.9% (inactive) | 
51 | COC(=O)Cn1ncc2ccccc21 |  | AC50 [1]: < 100 nM
52 | COC(=O)CCCn1nc(-c2ccccc2)c2ccccc21 | -45% (inactive) | 
53 | O=C(Cn1c2ccc(F)cc2c2nc3n(c(=O)c21)CCS3)N1CCCCC1 | -20.6% (inactive) | 
54 | Cc1nn(S(C)(=O)=O)c2ccccc12 | -19.3% (inactive) | 
55 | O=C(c1cccc(Cl)c1)N1CCN(c2ccccn2)CC1 | -4.09% (inactive) | 
56 | c1ccc(-c2nn(Cc3ncco3)c3ccccc23)cc1 | -36.1% (inactive) | 
57 | CCN(CC)C(=O)Cn1c2ccc(F)cc2c2nc3n(c(=O)c21)CCS3 | -39.8% (inactive) | 
58 | O=C(Cn1nc(-c2ccccc2)c2ccccc21)OC1CCC1 |  | AC50 [1]: 191 nM
59 | N#CCn1nc(-c2ccccc2)c2ccccc21 | 8% (inactive) | 
60 | Cc1cccc(N2CCN(C(=O)c3ccc(Cl)cc3)CC2)n1 |  | AC50 [1]: 120 nM
61 | O=C(C1CCCCC1)N1CCN(c2ccccn2)CC1 | -25.3% (inactive) | 
62 | COc1ccc(NC(=O)Cn2c3ccccc3c3nc4n(c(=O)c32)CCS4)cc1 |  | AC50 [1]: 14900 nM
63 | COCCC(=O)N1CCN(c2ccccn2)CC1 | 2.45% (inactive) | 
64 | COC(=O)Cn1nc(-c2ccc(OC)cc2)c2ccccc21 |  | AC50 [1]: 1020 nM
65 | O=C(Cn1c2ccccc2c2nc3n(c(=O)c21)CCS3)N1CCCC1 | -33.6% (inactive) and 2.45% (inactive) | AC50 [1]: < 100 nM
66 | CC1CCN(C(=O)Cn2c3ccccc3c3nc4n(c(=O)c32)CCS4)CC1 |  | AC50 [1]: > 26000 nM (inactive)
67 | COC(=O)Cn1nc(-c2ccc(C)cc2)c2ccccc21 | -25% (inactive) | 
68 | CCCNC(=O)Cn1nc(-c2ccccc2)c2ccccc21 | 20.3% (inactive) | 
69 | O=C(c1ccc(Cl)cc1)N1CCN(c2nc3ccccc3o2)CC1 |  | AC50 [1]: 24200 nM
70 | COc1ccc2c(c1)c1nc3n(c(=O)c1n2CC(=O)N1CCC(C)CC1)CCS3 |  | activity change, negative = toxicity (PubChem AID 493147; at 2.6 µM (top of the series)): 41.3% (inactive)
71 | COC(=O)Cn1nc(-c2ccccc2)c2ccccc21 | -33.7% (inactive) | 
